The source made the active and inactive calls.
What was measured:
[1] = target: T1, Tyrosine-protein phosphatase non-receptor type 7 (Homo sapiens, UniProt P35236); assay: inhibitors of human HePTP phosphatase, […], biochemical, absorbance, leukemia target (AID 521); assay type: functional
T1 sequence (P35236 whole entry): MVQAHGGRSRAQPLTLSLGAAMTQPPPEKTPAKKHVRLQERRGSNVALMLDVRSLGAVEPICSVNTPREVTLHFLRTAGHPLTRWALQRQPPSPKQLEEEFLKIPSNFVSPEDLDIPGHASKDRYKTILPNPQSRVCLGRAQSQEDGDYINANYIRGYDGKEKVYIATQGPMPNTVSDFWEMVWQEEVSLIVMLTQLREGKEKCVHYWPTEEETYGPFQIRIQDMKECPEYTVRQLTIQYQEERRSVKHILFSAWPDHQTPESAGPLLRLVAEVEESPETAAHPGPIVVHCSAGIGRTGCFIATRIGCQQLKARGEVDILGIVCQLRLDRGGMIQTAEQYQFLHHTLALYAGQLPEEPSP

[2] = HEp-2 cell cytotoxicity, dose response, cytotoxicity control for RSV inhibitor project, HTS (AID 2410); assay type: functional; settings: human respiratory syncytial virus
cells [3] = assay: cells
[4] = target: T2, Corticotropin-releasing factor receptor 2/Corticotropin-releasing factor-binding protein (Homo sapiens, UniProt P24387+Q13324); assay: activators of CRF receptor 2 with binding protein – uHTS hits, confirmation (AID 602473); assay type: functional; settings: read-out: EC50_Mean
T2 sequence (Q13324 whole entry): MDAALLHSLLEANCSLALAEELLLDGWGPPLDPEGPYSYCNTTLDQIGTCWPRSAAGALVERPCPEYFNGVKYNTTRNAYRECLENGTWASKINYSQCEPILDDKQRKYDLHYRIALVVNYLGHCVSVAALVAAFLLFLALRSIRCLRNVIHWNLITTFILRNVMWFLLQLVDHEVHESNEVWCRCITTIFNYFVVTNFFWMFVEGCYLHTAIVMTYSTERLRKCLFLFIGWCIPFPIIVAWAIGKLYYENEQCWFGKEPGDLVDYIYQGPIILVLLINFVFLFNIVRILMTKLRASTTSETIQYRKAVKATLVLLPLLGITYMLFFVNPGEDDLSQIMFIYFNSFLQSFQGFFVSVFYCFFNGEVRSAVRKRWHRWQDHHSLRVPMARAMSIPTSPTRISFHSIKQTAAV
T2 sequence (P24387 whole entry): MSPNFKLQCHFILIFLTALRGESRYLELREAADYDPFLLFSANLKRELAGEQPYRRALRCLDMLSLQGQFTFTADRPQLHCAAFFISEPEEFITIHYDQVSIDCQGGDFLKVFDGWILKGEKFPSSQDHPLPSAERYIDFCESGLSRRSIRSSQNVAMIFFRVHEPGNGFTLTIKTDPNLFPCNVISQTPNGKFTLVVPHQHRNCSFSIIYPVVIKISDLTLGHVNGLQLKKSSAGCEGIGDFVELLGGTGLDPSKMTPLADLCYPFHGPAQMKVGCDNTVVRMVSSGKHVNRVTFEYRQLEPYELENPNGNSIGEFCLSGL

Ephrin type-A receptor 4 = Ephrin type-A receptor 4 (Mus musculus, UniProt Q03137); assay: inhibitors of EphA4 binding to KYL peptide, primary screen, biochemical, colorimetric, mouse EphA4 (AID 689); assay type: functional
[5] = target: E3 ubiquitin-protein ligase Mdm2 (Homo sapiens, UniProt Q00987); assay: enhancers of MDM2-luciferase reporter signal, concentration-effect titration, project on inhibitors of MDM2 ubiquitin ligase, cellular assay, luminescent readout, 384-well plate format (AID 1394); assay type: functional;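 further: MDM2 E3 inhibitors raise luminescence so EC50 is for signal enhancement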
[6] = target: T3, Polyadenylate-binding protein 1 (Homo sapiens, UniProt P11940); assay: PABP1 MLLE–PAM2 binding inhibitor potency, dose response, biochemical, fluorescence polarization, FITC-PAM2 peptide (AID 602259); assay type: functional; settings: read-out: IC50_Mean
[7] = target: T3, Polyadenylate-binding protein 1; assay: PABP1 MLLE–PAM2 interaction inhibitors, dose response, miRNA deadenylation inhibitor project, biochemical, fluorescence polarization, Cy5-PAM2 peptide, secondary (AID 602260); assay type: functional; settings: read-out: IC50_Mean
[8] = A Cell Based Secondary Assay To Explore Cytotoxicity of Compounds that Sensitize Mycobacterium Tuberculosis to Beta-Lactam Antibiotics.; assay type: functional
Bcl-2-related protein A1 [9] = target: T4, Bcl-2-related protein A1 (Mus musculus, UniProt Q07440); assay: Bfl-1 binding inhibitors, SAR follow-up, biochemical, fluorescence polarization (AID 1070)
T4 sequence (Q07440 whole entry): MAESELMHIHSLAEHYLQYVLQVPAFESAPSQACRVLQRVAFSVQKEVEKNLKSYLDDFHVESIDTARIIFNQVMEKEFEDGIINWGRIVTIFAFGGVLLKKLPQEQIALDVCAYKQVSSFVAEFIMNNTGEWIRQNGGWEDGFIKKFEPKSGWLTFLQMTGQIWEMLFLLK

[10] = target: Glyceraldehyde-3-phosphate dehydrogenase (Homo sapiens, UniProt P04406)
Bcl-2-related protein A1 [11] = target: T4, Bcl-2-related protein A1; assay: Bfl-1 inhibitors blocking BH3 peptide binding, confirmation, biochemical, TR-FRET, mouse Bfl-1 (AID 621);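 further: TR-FRET binding of GST-Bfl-1 to FITC-labelled Bid peptide via terbium antibody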
BJ [12] = assay: cytotoxicity toward BJ-TERT-LT-ST fibroblasts, dose response, cell-based, RAS-independent, luminescence (AID 1935); assay type: functional; settings: Homo sapiens;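 further: BJ fibroblasts immortalized with TERT plus LT and ST oncogenes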
[13] = target: T5, Heat shock factor protein 1 (Mus musculus, UniProt P38532); assay: inhibition of MG132-induced HSE-luciferase signal, confirmation, cell-based, NIH3T3, luminescence, dose retest (AID 2382); assay type: functional;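 further: NIH3T3 fibroblasts with HSF1-driven luciferase reporter stressed by proteasome inhibitor MG132; luminescence from HSF1-driven luciferase expression after 8 hours of MG132 stress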
T5 sequence (P38532 whole entry): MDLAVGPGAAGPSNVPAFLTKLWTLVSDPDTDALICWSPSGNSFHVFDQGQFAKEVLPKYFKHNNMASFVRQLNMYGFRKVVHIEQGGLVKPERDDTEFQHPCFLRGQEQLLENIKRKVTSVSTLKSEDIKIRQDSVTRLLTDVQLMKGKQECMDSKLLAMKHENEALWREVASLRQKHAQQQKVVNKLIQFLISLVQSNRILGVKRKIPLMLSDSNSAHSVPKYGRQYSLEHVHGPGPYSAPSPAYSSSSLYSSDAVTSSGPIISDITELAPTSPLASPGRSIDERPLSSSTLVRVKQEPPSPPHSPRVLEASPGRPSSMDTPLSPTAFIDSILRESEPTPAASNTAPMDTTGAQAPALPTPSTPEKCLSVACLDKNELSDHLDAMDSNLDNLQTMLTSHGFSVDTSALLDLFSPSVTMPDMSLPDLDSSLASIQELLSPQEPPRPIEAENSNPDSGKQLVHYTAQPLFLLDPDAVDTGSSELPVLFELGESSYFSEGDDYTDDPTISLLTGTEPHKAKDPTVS

[14] = cytotoxicity toward DRD oncogenic fibroblasts, dose response, cell-based, non-viral oncogenic, luminescence (AID 1934); assay type: functional; settings: Homo sapiens
[15] = HepG2 cell cytotoxicity, dose response, cytotoxicity control for Shn3 inhibitor project, CellTiter-Glo, cherry-picked (AID 624134); assay type: functional, cell-based
[16] = Shn3 3'UTR reporter inhibitors, dose response, cell-based, Clone20 osteoblasts, firefly luciferase, cherry-picked (AID 624132); assay type: functional;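 further: firefly luciferase luminescence from reporter carrying the Shn3 3'UTR in osteoblasts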
[17] = cytotoxicity in HEK-293T cells, dose response, cytotoxicity control for TCR NF-kB inhibitor project, luminescence, T-cell screen hits (AID 489026); assay type: functional, cell-based;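 further: cells exposed to compound about 14 hours before the viability readout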
BJ [18] = assay: cells; assay type: functional, cell-based; settings: Homo sapiens
BJ [19] = assay: cytotoxicity toward BJ-TERT fibroblasts, dose response, cell-based, RAS-independent, luminescence (AID 1933); assay type: functional; settings: Homo sapiens
[20] = control 3'UTR Renilla luciferase suppression, dose response, counter-screen for Shn3 inhibitor project, cell-based, Clone20-Shn3RL, cherry-picked (AID 624133); assay type: functional
Vasopressin V1a receptor = Vasopressin V1a receptor (Homo sapiens, UniProt P37288); assay: Counterscreen for Oxytocin Receptor (OXTR) agonists: Fluorescence-based cell-based high throughput dose response assay to identify agonists of the vasopressin 1 receptor (V1R). [Related pubchem assays: 2435 (Primary screen (OXTR agonists in singlicate)), 434991 (Counterscreen (V1R agonists in triplicate)), 2482 (Summary (OXTR agonists)) …; assay type: functional
Oxytocin receptor = Oxytocin receptor (Homo sapiens, UniProt P30559); assay: Fluorescence-based cell-based high throughput dose response assay for agonists of the Oxytocin Receptor (OXTR). [Related pubchem assays: 2435 (Primary screen (OXTR agonists in singlicate)), 434991 (Counterscreen (V1R agonists in triplicate)), 2482 (Summary (OXTR agonists)), 434963 (Confirmation screen (OXTR agonists in triplicate))]; assay type: functional
INS1 = assay: beta cell apoptosis inhibitors, cytokine rescue, dose response, luminescence, retest (AID 449756); assay type: functional, cell-based; settings: Rattus norvegicus;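 further: cell death triggered by IL-1 beta plus TNF-alpha plus IFN-gamma mixture; protective hits raise ATP signal compared with cytokine alone wells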
[21] = Luminescence Cell-Based Dose Response to Identify Activators of 5'UTR Stem-Loop Driven Prion Protein mRNA Translation in H4-C Neuroglioblastoma Cells. [Related pubchem assays: 1829 (Project Summary), 1814 (Primary HTS)]; assay type: functional
cells [22] = assay: cells; remark: listed apart in the source
[23] = target: T6, Oxysterols receptor LXR-beta (Homo sapiens, UniProt P55055); assay type: functional, cell-based;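 further: Cell-based luminescence dose-response assay of agonist activity at LXR, run as a confirmatory counterscreen to a daf-12 agonist screen; HEK293 cells with Gal4-LXR fusion and GAL4-driven luciferase reporter; agonist potency from rising luciferase signal of a Gal4-LXR reporter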
T6 sequence (P55055 whole entry): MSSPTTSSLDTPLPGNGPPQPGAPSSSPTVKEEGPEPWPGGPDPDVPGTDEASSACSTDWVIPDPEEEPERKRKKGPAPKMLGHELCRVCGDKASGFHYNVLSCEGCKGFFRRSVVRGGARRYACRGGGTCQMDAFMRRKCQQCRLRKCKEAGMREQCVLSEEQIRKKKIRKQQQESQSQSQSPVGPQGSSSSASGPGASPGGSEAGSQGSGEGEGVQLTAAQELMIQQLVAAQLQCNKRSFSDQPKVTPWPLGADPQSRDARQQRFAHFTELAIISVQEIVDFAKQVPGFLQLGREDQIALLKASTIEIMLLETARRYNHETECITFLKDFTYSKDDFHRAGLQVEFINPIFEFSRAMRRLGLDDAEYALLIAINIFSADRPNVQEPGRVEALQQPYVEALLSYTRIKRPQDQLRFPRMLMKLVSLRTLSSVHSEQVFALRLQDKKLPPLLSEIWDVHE

[24] = human group III sPLA2 inhibitors, dose response, biochemical, QFRET, IC50 (AID 743457);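 further: green fluorescence rise as the enzyme cleaves BODIPY PC-A2 in liposomes; potency for inhibition of the enzyme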
[25] = Luminescence Cell-Based Dose Confirmation to Identify Activators of 5'UTR Stem-Loop Driven Alpha-Synuclein mRNA Translation in H4 Neuroglioblastoma Cells. [Related pubchem assays: 1829 (Project Summary), 1814 (Primary HTS)]; assay type: functional
[26] = Luminescence Cell-Based Dose Response to Identify Activators of Luciferase Translation or Activity in H4-C Neuroglioblastoma Cells. [Related pubchem assays: 1829 (Project Summary), 1814 (Primary HTS)]; assay type: functional
[27] = Luminescence Cell-Based Dose Confirmation HTS to Identify Activators of 5'UTR Stem-Loop Driven Alpha-Synuclein mRNA Translation in H4 Neuroglioblastoma Cells. [Related pubchem assays: 1829 (Project Summary), 1814 (Primary HTS)]; assay type: functional
[28] = Luminescence Cell-Based Dose Response HTS to Identify Activators of Luciferase Translation or Activity in H4 […] Cells. [Related pubchem assays: 1829 (Project Summary), 1814 (Primary HTS)]; assay type: functional
H4 = assay: Luminescence Cell-Based Dose Response HTS to Identify Activators of 5'UTR Stem-Loop Driven Prion Protein mRNA Translation in H4 Neuroglioblastoma Cells. [Related pubchem assays: 1829 (Project Summary), 1814 (Primary HTS)]; assay type: functional; settings: Homo sapiens
[29] = microbe, parasite or virus in culture; assay type: functional; settings: Mycobacterium tuberculosis

T3 sequence (P11940 whole entry): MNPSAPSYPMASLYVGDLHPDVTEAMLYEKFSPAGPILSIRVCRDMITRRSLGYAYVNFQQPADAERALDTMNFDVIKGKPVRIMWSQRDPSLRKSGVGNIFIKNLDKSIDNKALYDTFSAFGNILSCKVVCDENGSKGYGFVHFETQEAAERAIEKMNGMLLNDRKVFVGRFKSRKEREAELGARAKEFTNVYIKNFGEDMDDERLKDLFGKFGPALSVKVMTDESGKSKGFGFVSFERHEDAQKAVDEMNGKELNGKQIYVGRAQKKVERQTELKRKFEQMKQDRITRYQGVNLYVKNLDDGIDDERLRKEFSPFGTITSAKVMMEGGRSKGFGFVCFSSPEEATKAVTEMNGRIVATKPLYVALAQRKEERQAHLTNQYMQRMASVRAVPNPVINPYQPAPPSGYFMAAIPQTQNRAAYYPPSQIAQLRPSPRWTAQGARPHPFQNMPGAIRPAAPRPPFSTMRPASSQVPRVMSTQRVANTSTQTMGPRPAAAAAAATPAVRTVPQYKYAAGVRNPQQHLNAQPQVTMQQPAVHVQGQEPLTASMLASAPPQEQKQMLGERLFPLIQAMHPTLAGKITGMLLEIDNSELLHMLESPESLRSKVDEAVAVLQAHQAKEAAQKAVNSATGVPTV
Sequence of E3 ubiquitin-protein ligase Mdm2 (Q00987 whole entry): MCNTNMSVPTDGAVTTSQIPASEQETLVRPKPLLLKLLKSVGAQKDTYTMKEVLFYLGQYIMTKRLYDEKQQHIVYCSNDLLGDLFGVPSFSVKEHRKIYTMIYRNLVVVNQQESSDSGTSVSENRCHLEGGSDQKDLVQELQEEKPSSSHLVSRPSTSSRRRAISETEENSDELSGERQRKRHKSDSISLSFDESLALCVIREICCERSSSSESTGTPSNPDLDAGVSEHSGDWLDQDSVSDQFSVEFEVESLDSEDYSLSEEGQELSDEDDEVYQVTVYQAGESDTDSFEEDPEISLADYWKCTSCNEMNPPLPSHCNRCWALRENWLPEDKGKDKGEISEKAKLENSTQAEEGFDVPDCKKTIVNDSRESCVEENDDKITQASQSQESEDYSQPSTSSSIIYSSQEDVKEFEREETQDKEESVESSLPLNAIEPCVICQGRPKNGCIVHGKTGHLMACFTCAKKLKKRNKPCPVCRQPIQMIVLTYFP
Sequence of Ephrin type-A receptor 4 (Q03137 whole entry): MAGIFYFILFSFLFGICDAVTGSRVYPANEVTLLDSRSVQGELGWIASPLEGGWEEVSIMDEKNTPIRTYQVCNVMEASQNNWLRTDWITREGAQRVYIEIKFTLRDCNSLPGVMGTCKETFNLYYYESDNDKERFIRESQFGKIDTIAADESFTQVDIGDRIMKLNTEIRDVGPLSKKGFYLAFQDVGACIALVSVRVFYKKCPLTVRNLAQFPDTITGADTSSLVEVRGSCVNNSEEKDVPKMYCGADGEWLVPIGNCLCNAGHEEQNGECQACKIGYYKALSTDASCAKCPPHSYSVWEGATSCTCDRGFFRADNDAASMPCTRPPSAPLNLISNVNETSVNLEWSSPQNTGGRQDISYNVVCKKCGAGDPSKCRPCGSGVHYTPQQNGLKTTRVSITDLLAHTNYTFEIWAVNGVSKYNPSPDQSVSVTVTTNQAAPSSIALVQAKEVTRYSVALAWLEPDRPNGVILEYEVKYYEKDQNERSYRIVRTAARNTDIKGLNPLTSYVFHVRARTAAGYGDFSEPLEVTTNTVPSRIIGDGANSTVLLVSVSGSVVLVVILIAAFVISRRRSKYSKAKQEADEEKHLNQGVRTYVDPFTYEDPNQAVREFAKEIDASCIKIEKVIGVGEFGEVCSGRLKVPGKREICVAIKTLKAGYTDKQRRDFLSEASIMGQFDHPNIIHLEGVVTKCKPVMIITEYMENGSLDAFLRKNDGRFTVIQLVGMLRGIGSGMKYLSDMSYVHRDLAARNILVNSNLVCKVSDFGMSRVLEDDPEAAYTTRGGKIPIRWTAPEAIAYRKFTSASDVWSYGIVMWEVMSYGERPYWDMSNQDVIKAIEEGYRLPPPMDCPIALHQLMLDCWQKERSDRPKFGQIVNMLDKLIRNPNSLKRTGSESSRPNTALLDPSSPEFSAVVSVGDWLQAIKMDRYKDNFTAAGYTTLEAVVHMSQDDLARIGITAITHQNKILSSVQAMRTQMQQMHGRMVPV
Sequence of Vasopressin V1a receptor (P37288 whole entry): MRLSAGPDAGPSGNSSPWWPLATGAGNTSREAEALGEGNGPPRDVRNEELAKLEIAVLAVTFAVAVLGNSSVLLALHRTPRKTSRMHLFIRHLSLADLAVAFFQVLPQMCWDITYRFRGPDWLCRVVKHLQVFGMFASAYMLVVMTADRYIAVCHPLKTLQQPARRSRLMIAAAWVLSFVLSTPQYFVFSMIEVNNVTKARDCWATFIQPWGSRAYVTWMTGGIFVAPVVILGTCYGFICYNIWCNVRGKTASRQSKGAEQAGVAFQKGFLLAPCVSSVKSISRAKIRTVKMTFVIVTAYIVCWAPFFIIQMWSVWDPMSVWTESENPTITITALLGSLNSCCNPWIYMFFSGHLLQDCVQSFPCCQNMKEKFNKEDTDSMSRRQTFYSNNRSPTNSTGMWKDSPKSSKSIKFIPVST
Sequence of Glyceraldehyde-3-phosphate dehydrogenase (P04406 whole entry): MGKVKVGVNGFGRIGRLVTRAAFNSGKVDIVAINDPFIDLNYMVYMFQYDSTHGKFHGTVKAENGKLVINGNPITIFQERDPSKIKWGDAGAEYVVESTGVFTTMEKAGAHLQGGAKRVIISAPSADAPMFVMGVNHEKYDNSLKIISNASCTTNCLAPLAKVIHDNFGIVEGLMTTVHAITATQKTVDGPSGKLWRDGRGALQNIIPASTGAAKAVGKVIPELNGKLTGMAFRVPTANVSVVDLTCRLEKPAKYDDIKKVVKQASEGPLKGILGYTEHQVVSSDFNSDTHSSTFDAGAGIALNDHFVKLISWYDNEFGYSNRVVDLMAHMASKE
Sequence of Oxytocin receptor (P30559 whole entry): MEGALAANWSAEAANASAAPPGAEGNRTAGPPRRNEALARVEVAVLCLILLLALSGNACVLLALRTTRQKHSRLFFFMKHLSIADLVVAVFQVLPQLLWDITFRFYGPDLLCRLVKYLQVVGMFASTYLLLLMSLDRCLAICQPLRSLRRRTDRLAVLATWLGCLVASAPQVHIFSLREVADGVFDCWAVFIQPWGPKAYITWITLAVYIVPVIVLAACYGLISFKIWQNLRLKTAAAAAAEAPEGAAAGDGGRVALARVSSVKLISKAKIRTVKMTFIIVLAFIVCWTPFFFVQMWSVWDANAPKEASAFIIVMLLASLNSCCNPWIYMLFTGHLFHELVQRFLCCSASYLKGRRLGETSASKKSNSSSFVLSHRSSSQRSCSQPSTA

COc1ccc(NC(=O)C2CCCN(S(=O)(=O)c3cccnc3)C2)cc1 (stereo not given)
IC50 [1]: > 100 µM (not active)

O=C(Cc1cccc2ccccc12)Nc1ccccc1C(=O)O
CC50 [2]: 28.8 µM (active)
IC50 (cells [3]): 24.4 µM (active)

C=CCn1c(=O)/c(=C/c2cc(OC)c(OC)c(OC)c2)s/c1=C(/C#N)c1nc2ccccc2n1C
EC50 [4]: 13.3 µM (active)
IC50 (Ephrin type-A receptor 4): > 100 µM (not active)

Cc1cc(NC(=O)C2CC2)ncc1NC(=O)C12CC3CC(CC(C3)C1)C2
EC50 [5]: 15.7 µM (not active)

O=C(c1ccc2c(=O)n(Cc3ccc4c(c3)OCO4)c(=S)[nH]c2c1)N1CCCCC1
IC50 (Ephrin type-A receptor 4): > 100 µM (not active)

Cc1ccc(C(=O)O)cc1NC(=S)NC(=O)c1ccc(-c2ccc(Cl)cc2)o1
CC50 [2]: 23.2 µM (active)
IC50 (cells [3]): 22.8 µM (active)
IC50 [6]: > 66 µM (inactive)
IC50 [7]: > 66 µM (inactive)

COc1ccc(OC)c(Nc2nc(-c3cccs3)cs2)c1
CC50 [2]: 26.5 µM (active)
CC50 [8]: > 40 µM (active)

Cc1ccc(Cl)cc1N1CCN(C2=C(Cl)C(=O)N(c3ccc(Cl)c(Cl)c3)C2=O)CC1
IC50 (Bcl-2-related protein A1 [9]): > 100 µM (not active)
IC50 [10]: > 100 µM (not active)
IC50 (Bcl-2-related protein A1 [11]): > 100 µM (not active)

C=CCSc1nc2ccccc2n1C(=O)/C=C/c1cc(OC)c(OC)c(OC)c1
EC50 (BJ [12]): 3.4 µM (active)
EC50 [5]: 0.27 µM (active)
EC50 [13]: 10.3 µM (inconclusive)
EC50 [14]: 2.66 µM (active)
AC50 [15]: 63.8 µM (active)
AC50 [16]: 1.13 µM (active)
IC50 [17]: 71.8 µM (inactive)
EC50 (BJ [18]): > 150 µM (inconclusive)
EC50 (BJ [19]): 2.56 µM (inconclusive)
AC50 [20]: 14.2 µM (active)

COc1ccc(Cn2c(=O)[nH]c3cc(C(=O)N4CCN(c5ccccc5F)CC4)ccc3c2=O)cc1
CC50 [8]: > 40 µM (active)

COc1cccc(/C=N/Nc2snc(SC)c2C#N)c1O
EC50 (BJ [12]): > 150 µM (not active)
EC50 (Vasopressin V1a receptor): > 29.9 µM (not active)
EC50 (Oxytocin receptor): > 29.9 µM (not active)
EC50 [14]: 48.3 µM (active)
EC50 (BJ [18]): 40.4 µM (active)
AC50 (INS1): 3.96 µM (active)
EC50 (BJ [19]): 27 µM (active)

Cc1cc(COc2ccccc2OCCN2CCN(C)CC2)no1
IC50 [1]: > 100 µM (not active)

C=CCS/C(N)=N\N=C\c1c(O)ccc2ccccc12
EC50 [21]: 0.313 µM (active)
EC50 (cells [22]): > 67.5 µM (inactive)
EC50 [23]: > 67.5 µM (inactive)
IC50 [24]: > 122 µM (inactive)
EC50 [25]: 0.426 µM (active)
EC50 [26]: 0.324 µM (active)
EC50 [27]: 9.96 µM (active)
EC50 [28]: 0.902 µM (active)
EC50 (H4): < 0.1 µM (active)
CC50 [29]: > 40 µM (active)

Source: ChEMBL document CHEMBL1201862, “PubChem BioAssay data set” (2004)
